Entries after “also recorded” stand apart in the source; their conditions may differ.
Tests used:
[1] = molecular target: CypD PPIase (Homo sapiens, UniProt P30405); assay: CypD PPIase enzyme activity inhibition (real-time kinetics assay); type: biochemical; conditions: for Inhibition of CypD PPIase activity (in words): reaction progress curves, 0.39 to 50 uM (Compound 9: 0.19 to 100 uM), 25° C.
Description: The ability of CypD inhibitors to inhibit CypD PPIase enzyme activity was determined using a previously utilized “standard” procedure (Kofron, J. L.; Kuzmic, P.; Kishore, V.; Colon-Bonilla, E.; Rich, D. H., Determination of kinetic constants for peptidyl prolyl cis-trans isomerases by an improved spectrophotometric assay. Biochemistry 1991, 30, 6127-34). The results are presented in FIGS. 2A-2D and compared to CsA in FIG. 2E.
Linearity was maintained up to 5 minutes of incubation at 25° C. […] Linearity was maintained up to 5 minutes of incubation at 25° C. […] FIG. 10 show reaction progress curves collected for CypD activity in DMSO alone or at various Compound 6C concentrations ranging from 0.39 to 50 uM. Linearity was maintained up to 5 minutes of incubation at 25° C. […] FIG. 11 show reaction progress curves collected for CypD activity in DMSO alone or at various Compound 9 concentrations ranging from 0.19 to 100 uM. Linearity was maintained up to 5 minutes of incubation at 25° C.
Since inhibition of CypD PPIase activity was essential for potentiation of Aβ cytotoxicity, Aβ-induced cytotoxicity can presumably be decreased if the Aβ-CypD interaction is blocked with small-molecule inhibitors like Compound 9.

[2] = tested on: SK-N-SH cells; assay: Cytochrome c oxidase (CcO) activity in Aβ1-42-treated cells; type: cell-based
Description: The effect of the CypD inhibitors on cytochrome c oxidase (CcO) was studied. The effect of the CypD inhibitors on Aβ-induced mitochondrial respiratory function was assessed by determining cytochrome c oxidase (CcO) activity. CcO is a vital enzyme associated with the mitochondrial electron transport chain. SK-N-SH cells were treated for 48 hours with 5 μM of oligomer Aβ1-42 in the presence of 10-20 μM of CypD inhibitor C-9, after which samples were tested for CcO enzyme activity levels.

[3] = Blood brain barrier penetration, LC-MS/MS of CSF, plasma and brain; type: in vivo; conditions: mice, 10 mg/kg dose i.v., CSF and brain 4 hours after administration
Description: Samples were collected 4 hours after i.v. administration of 10 mg/kg of Compound 6A in mice. […] Samples were collected 4 hours after i.v. administration of 10 mg/kg of Compound 6B in mice. […] Samples were collected 4 hours after i.v. administration of 10 mg/kg of Compound 6C in mice.
Additionally a selective and sensitive method for detecting the presence of four compounds (Compounds 6A, 6B, 6C & 9) as CypD inhibitors in mouse plasma, brain and artificial cerebrospinal fluid is based on high performance liquid chromatography tandem mass spectrometry. Mass spectra were generated using Micromass Quattro Ultima “triple” quadrupole mass spectrometer equipped with Electrospray ionization interface. The method used for pharmacokinetic studies of compounds in mouse cerebrospinal fluid, plasma, and brain is accurate, precise, and specific with no matrix effect.

[4] = molecular target: human recombinant CypD protein (Homo sapiens, UniProt P30405); assay: Surface plasmon resonance (SPR) binding to immobilized CypD; conditions: for Kd: 1:1 Langmuir binding fit, CypD immobilized on CM5 chip, read-out: KD (equilibrium dissociation constant); for Binding to CypD (in words): dose dependent
Chain of human recombinant CypD protein (P30405 30-207): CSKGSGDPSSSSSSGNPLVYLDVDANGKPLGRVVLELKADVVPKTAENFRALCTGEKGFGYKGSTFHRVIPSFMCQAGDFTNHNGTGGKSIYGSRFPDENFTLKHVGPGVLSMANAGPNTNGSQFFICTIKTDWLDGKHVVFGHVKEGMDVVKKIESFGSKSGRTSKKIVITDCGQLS
Description: In vitro SPR was used to verify the ability of the CypD inhibitors to bind to human recombinant CypD protein, which correlates with its potential CypD inhibitory activity.
Surface plasmon resonance (SPR) analysis of CypD-Pyrimidine derivative binding interaction, where the globally fit data (black lines) were overlaid with experimental data (greyish lines). Human recombinant CypD protein (10 μg/ml) was immobilized directly on the hydrophilic carboxy methylated dextran matrix of the CM5 sensor chip (Biacore-3000) using the standard primary amine coupling reaction according to standard procedures. Compound 9 (2.5, 5, 10, 15, 20 μM) was injected at a flow rate of 40 μl/min for the determination of the kinetic and equilibrium constants. All data analyses were carried out using BIA evaluation software, and sensor grams were processed by automatic correction for nonspecific bulk refractive index.
The equilibrium dissociation constant (KD) was determined using a 1:1 Langmuir binding fit model and the association (kon) and dissociation (koff) rate constants were determined using Equations (1) and (2). dR/dt=kon×C×(Rmax−R)−koff×R (1)
Where R represents the response unit, C is the concentration of the analyte, and KD=koff/kon (2)
The obtained results were evaluated by χ^2 analysis and the kinetic parameters for Compound 9 are provided.

[5] = tested on: SK-N-SH cells; assay: Aβ-induced neuronal cell death, MTT reduction assay; type: cell-based; conditions: 10 and 20 μM
Excerpt: Assays examined the effect of the CypD inhibitor compounds on Aβ-induced neuronal cell death, commonly observed in AD. […] The addition of various dosages of inhibitor to the cells in the presence of Aβ1-42 increased cell viability. […] Thus, this evidence provides support that inhibition of CypD with specific inhibitors can provide a beneficial and powerful therapeutic tool in AD treatment.

[6] = tested on: SK-N-SH cells; assay: MTT reduction cell viability assay (toxicity of inhibitor alone); type: cell-based; conditions: 0, 5, 10, 25, 50, and 100 μM in healthy SK-N-SH cells
Excerpt: The effect of the CypD inhibitors on cell viability was studied. Excellent reversal effects of the CypD inhibitor on Aβ-affected processes were observed, including diminished mitochondrial swelling, and enhanced CcO activity and ATP production, assessment of the overall cell health of SK-N-SH cells treated with the CypD inhibitors were studied. A wide dosing range was utilized to examine the effect of the CypD inhibitors on cell viability using an MTT (3-(4,5-dimethylthiazol-2-yl)-2,5-diphenyltetrazolium_bromide) reduction assay (0, 5, 10, 25, 50, and 100 μM of inhibitor diluted in cell culture medium).

[7] = tested on: cortical mitochondria; assay: Calcium-induced mitochondrial swelling assay; parameters: species or system mice; conditions: mouse cortical mitochondria treated with Ca2+, compound added dose-dependently
Excerpt: Mitochondrial swelling in response to calcium was also studied. It is known that CypD-deficient cortical mitochondria are resistant to Aβ- and calcium (Ca^2+)-induced mitochondrial swelling and mitochondrial permeability transition. […] In order to determine the relationship between Ca^2+ and mitochondrial swelling, cortical mitochondria were isolated from mice and subjected to a swelling assay. Mitochondria treated with Ca^2+ experienced excessive swelling.
The fact that brain mitochondrial swelling was not affected by the inhibitors alone implies a symbiotic relationship between Ca^2+ and the inhibitor.

[8] = tested on: SK-N-SH cells; assay: Cellular ATP levels in Aβ1-42-treated cells; type: cell-based; conditions: 48 hours
Description: The effect of the CypD inhibitors on the levels of adenosine-5′-triphosphate (ATP) was studied. To determine the effect of the CypD inhibitors on Aβ-induced energy metabolism impairment, cellular ATP levels were analyzed. SK-N-SH cells were exposed to 5 μM of Aβ1-42 in the presence of 10-20 μM of Compound 9. After 48 hours, we measured the ATP concentrations in the cell lysates.

Chain of CypD PPIase (P30405 30-207): as above

| Blood-brain barrier penetration [3] | Kd [4] | Binding to CypD (in words) [4] | IC50 ([1]; real time fluorescence monitoring, read-out: IC50 inhibiting PPIase activity of CypD) | SMILES | Inhibition of CypD PPIase activity (in words) [1] | Aβ-induced mitochondrial dysfunction (cytochrome c oxidase and ATP levels) [2] | Cell viability in the presence of Aβ1-42 (MTT reduction) [5] | CcO activity in Aβ-treated cells ([2]; 5 μM oligomer Aβ1-42, 10-20 μM inhibitor, 48 hours) | Cell viability (MTT reduction), inhibitor alone [6] | Calcium-induced mitochondrial swelling [7] | ATP levels in Aβ-treated cells ([8]; 5 μM Aβ1-42, 10-20 μM compound, cell lysates) | ATP levels in cells exposed to inhibitor versus vehicle-treated cells without Aβ1-42 ([8]; 10-20 μM compound) |
| --- | --- | --- | --- | --- | --- | --- | --- | --- | --- | --- | --- | --- |
| penetrate the blood-brain barrier |  |  |  | CCOC(=O)C1=C(C)N=C2SC=C(CCc3ccccc3)N2C1c1cccc([N+](=O)[O-])c1 (centres unmarked) [Compound 6A] | inhibits CypD activity; also recorded: effective in reducing CypD peptidyl prolyl isomerase enzyme activity | abolished Aβ-induced mitochondrial dysfunction |  |  |  |  |  |  |
| penetrate the blood-brain barrier | 0.248 µM | high binding affinity |  | CCOC(=O)C1=C(C)N=C2SC=C(CCc3ccccc3)N2C1c1ccc(O)cc1 (centres unmarked) [Compound 6B] | inhibits CypD activity; also recorded: effective in reducing CypD peptidyl prolyl isomerase enzyme activity | abolished Aβ-induced mitochondrial dysfunction |  |  |  |  |  |  |
| penetrate the blood-brain barrier |  |  |  | CCOC(=O)C1=C(C)N=C2SC=C(CCc3ccccc3)N2C1c1ccc(F)cc1 (centres unmarked) [Compound 6C] | inhibits CypD activity; also recorded: effective in reducing CypD peptidyl prolyl isomerase enzyme activity | abolished Aβ-induced mitochondrial dysfunction |  |  |  |  |  |  |
| penetrate the blood-brain barrier | 0.149 µM | high binding affinity | 1.49 ± 0.2 µM | Cc1nc(-c2ccc(OCC(C)C)c(C#N)c2)sc1C(=O)Nc1ccc(S(N)(=O)=O)cc1 [Compound 9] | inhibits CypD activity; also recorded: effective in reducing CypD peptidyl prolyl isomerase enzyme activity | abolished Aβ-induced mitochondrial dysfunction | significant effect on cell health | rescued CcO activity | no significant effect | swelling was diminished | rescued ATP concentrations | comparable to those of vehicle-treated cells |
